Test results published in US8580773B2, “Small-molecule inhibitors of the androgen receptor” (The Regents of the University of California, priority 2008, dated 2013).
Structures can show the parent of a compound that is named as a salt.

What was measured:
[1] = Pharmacokinetics in mice, drug levels by mass spectrometry; type: in vivo
Excerpt: Serum samples were obtained at fixed time intervals, and the drug levels determined by mass spectrometry.

HEK293 cells = assay: Cell proliferation (DNA content, DAPI) in control HEK293 cells; type: cell-based; settings: PP 100 nM, HH 100 nM, BiC 1 μM
Excerpt: LN-AR cells were created by retroviral infection of a high-expressing AR vector into LNCaP cells, and proliferate independent of androgen in cell culture, unlike their parental line (Chen, C. D., et al., Molecular determinants of resistance to antiandrogen therapy. Nat Med, 2004. 10(1): p. 33-9). HEK293 cells were used as a control. Cells were transferred to charcoal-stripped media two days before they were split and plated in quadruplicate at a density of approximately 20,000 cells/well in 48-well plates. […] Media were changed every day, using a single preparation to ensure consistent compound concentrations. Proliferation was determined by measuring the DNA content of the cells in each well. Each day, the cells in four wells were fixed in 100% cold methanol, followed by staining for 5 min at RT with 0.2 ng/mL 4′,6-diamidino-2-phenylindole (DAPI) in PBS. The cells were washed once in PBS, then read on a fluorescence plate reader using 365/439 excitation/emission wavelengths. LAPC4 and LNCaP cells proliferated to a much greater degree in the presence of DHT, while LN-AR cells proliferated in the presence and absence of DHT.

human androgen receptor = target: T1, human androgen receptor (Homo sapiens, UniProt P10275); assay: Screen of 1040 FDA-approved drugs and natural products for AR antagonists (MMTV-luciferase transcription assay and C-AR-Y FRET conformation assays); type: cell-based; settings: test compounds at 10 μM, 10 nM DHT, 24 hours; validated by dose-response
T1 construct: expressed in transfected cells; host or cells: HEK293 and LAPC4 stably expressing C-AR-Y; HEK293 transiently transfected with native AR
T1 sequence (P10275 1-920): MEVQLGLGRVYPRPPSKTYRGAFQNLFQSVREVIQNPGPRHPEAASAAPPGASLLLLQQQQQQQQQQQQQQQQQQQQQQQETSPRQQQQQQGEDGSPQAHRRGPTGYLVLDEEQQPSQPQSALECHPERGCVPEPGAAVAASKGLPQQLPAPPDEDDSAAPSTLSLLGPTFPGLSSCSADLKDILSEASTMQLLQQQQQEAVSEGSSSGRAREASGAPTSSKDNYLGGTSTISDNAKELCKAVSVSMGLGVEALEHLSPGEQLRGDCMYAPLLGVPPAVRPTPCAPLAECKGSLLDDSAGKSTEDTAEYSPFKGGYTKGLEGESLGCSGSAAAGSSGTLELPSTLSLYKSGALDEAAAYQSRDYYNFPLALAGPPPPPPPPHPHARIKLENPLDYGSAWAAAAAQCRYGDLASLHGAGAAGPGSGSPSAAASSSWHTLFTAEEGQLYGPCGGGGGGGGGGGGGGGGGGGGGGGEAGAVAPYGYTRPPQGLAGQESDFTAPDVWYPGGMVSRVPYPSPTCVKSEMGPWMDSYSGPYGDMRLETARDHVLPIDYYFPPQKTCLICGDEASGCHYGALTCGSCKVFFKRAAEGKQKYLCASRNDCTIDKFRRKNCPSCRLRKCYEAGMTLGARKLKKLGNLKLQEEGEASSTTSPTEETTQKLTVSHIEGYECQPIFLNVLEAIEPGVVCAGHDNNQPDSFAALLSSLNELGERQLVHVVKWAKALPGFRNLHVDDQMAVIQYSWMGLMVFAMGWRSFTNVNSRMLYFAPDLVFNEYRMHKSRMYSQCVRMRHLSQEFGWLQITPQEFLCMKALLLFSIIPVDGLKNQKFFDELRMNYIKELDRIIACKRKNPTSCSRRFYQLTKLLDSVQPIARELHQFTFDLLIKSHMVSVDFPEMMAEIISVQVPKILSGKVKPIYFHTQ
Method: A library assembled by the NINDS was screened. The library consisted of 1040 FDA-approved drugs and natural products. A basic strategy to select and compare compounds from each of the primary screens was established (FIG. 1).
The transcription assay was conducted by transfecting 10 cm plates of HEK293 cells with plasmids encoding MMTV-luciferase, SV40-renilla luciferase, and native AR. […] FRET is fluorescence resonance energy transfer between cyan and yellow fluorescent protein derivatives (CFP, YFP) that are fused to the amino and carboxyl termini of the human androgen receptor. When ligand activates the receptor, a conformational change takes place that brings the CFP and YFP into close proximity, thereby allowing FRET to occur. This spectroscopic change is detected using a fluorescence plate reader.
For the transcription assay, transfected cells were pooled before being plated into 96-well dishes with the test compounds at 10 μM. […] Cell and compound transfers were accomplished with a liquid handling robot. Cells were cultured for 24 hours in the presence of 10 nM DHT and the test compounds. After 24 hours, cells were either lysed by freeze-thaw (transcription assay), or fixed in 4% paraformaldehyde for reading on the FPR (FRET assays). Each compound was tested in duplicate in the initial screen.
The compounds were sorted on the basis of anti-androgen effects. […] This eliminated situations in which one test gave a strong response, and the replicate had none. […] For the FRET assays, toxic compounds were easily detected because of their effect on raw CFP and YFP signal, and compounds that reduced this signal below two standard deviations were eliminated.
The top 50 compounds identified in each primary assay were then tested in the other two assays.

SMILES: Cc1nccc2c1[nH]c1cc(O)ccc12 [HH, harmol hydrochloride]
- Plasma concentration ([1]; mice, single IP injection 5 mg/kg, 1 hr): 5.0 ng/mL
- Clearance / half-life (in words) ([1]; wild-type FVB mice, single intraperitoneal injection): rapidly cleared
- Non-specific growth inhibition (HEK293 cells): Neither compound exhibited non-specific growth inhibition
- Anti-androgen activity in screen (human androgen receptor): previously unrecognized anti-androgen activity
